Read-outs that look alike come from different tables or passages of the source.
Assays:
[1] = tested on: A549; parameters: method as in Rajitha et al., 2011; conditions: ref Rajitha et al., 2011; cited from earlier work
[2] = tested on: DLD-1; parameters: method as in Rajitha et al., 2011; conditions: ref Rajitha et al., 2011; cited from earlier work
[3] = tested on: MV4-11; parameters: method as in Rajitha et al., 2011; conditions: ref Rajitha et al., 2011; cited from earlier work
[4] = tested on: HCT116 cells; parameters: method as in Mohammed et al., 2022; conditions: MTT assay; ref Mohammed et al., 2022; cited from earlier work
[5] = biological target: topoisomerase II; parameters: method as in Mohammed et al., 2022; conditions: ref Mohammed et al., 2022; cited from earlier work
[6] = tested on: PI3Kα; parameters: method as in Yan et al., 2019; conditions: ref Yan et al., 2019; read-out: IC50 against PI3Kα; cited from earlier work
[7] = tested on: HeLa; parameters: method as in Yan et al., 2019; conditions: ref Yan et al., 2019; cited from earlier work
[8] = tested on: A549 cells; parameters: method as in Yan et al., 2019; conditions: ref Yan et al., 2019; cited from earlier work
[9] = parameters: method as in Yan et al., 2019; conditions: mice; ref Yan et al., 2019; cited from earlier work
[10] = tested on: HCT116 cells; parameters: method as in El Hamaky et al., 2024; conditions: ref El Hamaky et al., 2024, cited from earlier work
[11] = tested on: topoisomerase I; parameters: method as in El Hamaky et al., 2024; conditions: ref El Hamaky et al., 2024; cited from earlier work
[12] = tested on: topoisomerase II; parameters: method as in El Hamaky et al., 2024; conditions: ref El Hamaky et al., 2024; cited from earlier work
[13] = tested on: tubulin polymerization; parameters: method as in El Hamaky et al., 2024; conditions: ref El Hamaky et al., 2024; cited from earlier work
[14] = tested on: HepG2 cells; parameters: method as in Xie et al., 2023; conditions: ref Xie et al., 2023, cited from earlier work
[15] = tested on: A549 lung cancer cell; parameters: method as in Zhou et al. (2014); conditions: by inducing autophagy and cell cycle arrest; ref Zhou et al. (2014); cited from earlier work
[16] = tested on: HeLa cells; parameters: method as in Srinivas Reddy et al., 2022; conditions: ref Srinivas Reddy et al., 2022; cited from earlier work
[17] = tested on: A549 cells; parameters: method as in Bollu et al., 2017; conditions: ref Bollu et al., 2017; cited from earlier work
[18] = tested on: A549; assay: CCK-8 cell viability assay and IC50 measurement; format: cell-based, human; conditions: Homo sapiens; for viability at 40 µM: CCK-8, read-out: Cell viability (100%), 40 μM, 48 h, A549
Procedure: (§1) In order to investigate the anticancer activity of new synthetic 1,4-benzoxazinone-linked 1,2,3-triazole compounds, we chose several cancer cell lines, including A549 (lung), Huh7 (liver), MCF-7 (breast), HCT-116 (colon), and SKOV3 (ovary), and measured cell viability using the CCK-8 assay. Cells were exposed to 40 μM of the compounds for 48 h, and then cell viability was determined. […] In addition, we used the reference drug gefitinib as a positive control and measured its cell viability on different cell lines. […] We used BEAS-2B cells as a normal cell line to determine the toxic effects of these compounds on normal cells. […] Furthermore, we evaluated the IC50 of these compounds in A549.
(§2) Human cancer cell lines A549, Huh7, MCF-7, HCT-116, and SKOV3 were obtained from ATCC. The cells were cultured in DMEM or RPMI 1640 medium supplemented with 10% FBS and 1% penicillin/streptomycin and incubated at 37°C in a CO2-humidified atmosphere.
(§3) Cells were cultured in DMEM or RPMI 1640 medium containing 10% FBS and 1% penicillin/streptomycin at 37°C and 5% CO2. The CCK-8 assay was performed on several human cancer cell lines, including A549, Huh7, MCF-7, HCT-116, and SKOV3, according to the manufacturer’s instructions. Cells were plated at a density of 5 × 10^3 cells per well in a 96-well plate. After 24 h of incubation, cells were treated with 40 μM compounds for 48 h. Cell viability was assessed by adding 10 μL of CCK-8 reagent, dissolved in the cell culture medium, and incubating for 1 h. Absorbance was measured at 450 nm using a microplate reader. IC50 values were determined using a dose-response curve with six concentrations (0, 10, 20, 40, 80, and 160 μM), and IC50 values were calculated using GraphPad Prism software.

[19] = tested on: HCT-116; assay: CCK-8 cell viability assay; format: cell-based; conditions: Homo sapiens, HCT-116, 40 μM, 48 h, read-out: Cell viability (100%), 40 μM, 48 h, HCT-116
Procedure: as §1, §2, §3

[20] = tested on: Huh7; assay: CCK-8 cell viability assay; format: cell-based; conditions: Homo sapiens, Huh-7, Huh7, 40 μM, 48 h, read-out: Cell viability (100%), 40 μM, 48 h, Huh7
Procedure: as §1, §2, §3

[21] = tested on: MCF-7; assay: CCK-8 cell viability assay; format: cell-based; conditions: Homo sapiens, MCF7, MCF-7, 40 μM, 48 h, read-out: Cell viability (100%), 40 μM, 48 h, MCF-7
Procedure: as §1, §2, §3

[22] = tested on: SKOV3; assay: CCK-8 cell viability assay; format: cell-based; conditions: Homo sapiens, SK-OV-3, SKOV3, 40 μM, 48 h, read-out: Cell viability (100%), 40 μM, 48 h, SKOV3
Procedure: as §1, §2, §3

[23] = CCK-8 cell viability assay, normal cell line; format: cell-based; conditions: human, BEAS-2B cells (normal cell line), BEAS-2B normal cell line, read-out: Cell viability (100%), 40 μM, 48 h, BEAS-2B
Procedure: as §1, §3

[24] = A549, 48 h, read-out: IC50 48 h
[25] = A549, 72 h, read-out: IC50 72 h

O=C1COc2ccc(-c3[nH]c(-c4ccc(C(F)(F)F)cc4)nc3-c3ccccc3)cc2N1 [compound 5]
viability of A549 cells [1]: significantly reduced | viability of DLD-1 cells [2]: significantly reduced | viability of MV4-11 cells [3]: significantly reduced

COc1ccc(/C=C/C(=O)c2ccc(-n3cc(CN4CCN(c5cc6c(cc5F)c(=O)c(C(=O)O)cn6C5CC5)CC4)nn3)cc2)cc1OC [compound 10]
IC50 [4]: 10.6 ± 0.8 µM | IC50 [5]: 19.7 ± 0.79 µM

COc1ccc(N2C(=O)COc3ccc(-c4cnc(OC)c(NS(=O)(=O)c5ccc(F)cc5)c4)cc32)cc1 [compound 6]
IC50 [6]: 0.00063 µM | IC50 [7]: 1.35 µM | IC50 [8]: 1.22 µM | oral bioavailability [9]: good

Cc1ccc(NC(=O)Cn2cc(CSc3nc4ccccc4c(=O)n3-c3ccccc3)nn2)cc1 [compound 8]
γ-H2AX protein expression ([10]; HCT116): upregulated | IC50 [10]: 4.87 ± 0.78 µM | topoisomerase I inhibition [11]: significantly inhibited | topoisomerase II inhibition [12]: significantly inhibited | tubulin polymerization inhibition [13]: significantly inhibited

COc1c2n(cc(C(=O)Nc3cccc(-c4cn(-c5c(C)cc(C)cc5C)nn4)c3)c1=O)C[C@H]1OC[C@H](C)N1C2=O [compound 7]
apoptosis, G2/M phase arrest, and DNA damage ([14]; concentration-dependent): induced | IC50 [14]: 4.07 ± 0.09 µM

COc1cc(/C=C/C(=O)c2ccc3c(c2)NC(=O)CO3)cc(OC)c1 [compound 4]
A549 lung cancer cell growth [15]: effectively suppressed

N#Cc1ccc(-n2nnc3c2-c2cc(Cl)c4cccnc4c2OC3)cc1 [compound 9]
IC50 [16]: 3.38 ± 1.14 µM

COc1ccc(-c2nc3ccccc3c(=O)n2C/C=C/c2ccc(C(=O)CN3C(=O)COc4ccccc43)cc2)c(OC)c1OC [compound 3]
GI50 [17]: 0.32 µM

O=C1COc2ccc(NC(=O)c3cccc(-c4cn(Cc5ccc(F)c(Cl)c5)nn4)c3)cc2N1 [Compound 13f]
IC50 [18, 24]: 55.2 ± 1.56 µM | IC50 [18, 25]: 53.3 ± 6.64 µM | viability at 40 µM ([18]; A549, 40 μM, 48 h): 44.5 ± 3.23% | inhibition at 40 µM ([18]; A549, 40 μM, 48 h, read-out: inhibition rate): > 50% | viability at 40 µM [19]: 68 ± 5.4% | viability at 40 µM [20]: 88.4 ± 1.3% | viability at 40 µM [21]: 85.5 ± 2.2% | viability at 40 µM [22]: 83.7 ± 1.74% | viability at 48 h, 40 µM [23]: 124 ± 3.82%

O=C1COc2ccc(NC(=O)c3cccc(-c4cn(Cc5cc(F)c(F)c(F)c5)nn4)c3)cc2N1 [Compound 13c]
IC50 [18, 24]: > 100 µM | IC50 [18, 25]: 64 ± 6.77 µM | viability at 40 µM ([18]; A549, 40 μM, 48 h): 63 ± 1% | viability at 40 µM [19]: 68.2 ± 3.35% | viability at 40 µM [20]: 110 ± 1.2% | viability at 40 µM [21]: 91.4 ± 2.78% | viability at 40 µM [22]: 88.5 ± 1.16% | viability at 48 h, 40 µM [23]: 101 ± 1.59%

From article PMC12202533, “Mechanistic Insights and Anti-cancer Activity of 2H-benzo[b][1,4]oxazin-3(4H)-one Linked 1,2,3-Triazoles in Human Cancer Cells” (Frontiers in Pharmacology, 2025)
